Assay results from EP3892275A1, “AEROSOLIZATION OF HCQ OR ITS METABOLITES FOR THE TREATMENT OF LUNG INFECTIONS” (INSERM (Institut National de la Santé et de la Recherche …, priority 2020, dated 2021).

Key:
[1] = Behaviour in water (solubility, aggregation)
[2] = system: lung; conditions: aerosol delivery in animals; cited from earlier work
[3] = system: COVID; conditions: references 1,2; cited from earlier work

| Structure (SMILES) | aggregation when dissolved in water [1] | solubility in water [1] | anti-inflammatory effect on the lung [2] | antiviral activity in vitro at a cellular level [3] |
| --- | --- | --- | --- | --- |
| CC(CCCNCCO)Nc1ccnc2cc(Cl)ccc12 (stereo not drawn) [DHCQ, N-desethylhydroxychloroquine] | do not aggregate | water-soluble |  |  |
| CCN(CCO)CCCC(C)Nc1ccnc2cc(Cl)ccc12.O=S(=O)(O)O (stereo not drawn) [HCQ, 2-[[4-[(7-Chloro-4-quinolyl)amino]pentyl]ethylamino] ethanol sulfate (1:1)] | do not aggregate | water-soluble | rapid and potent anti-inflammatory effect on the lung | highly potent antiviral drug |
